Data reported in ChEMBL document CHEMBL1201862, “PubChem BioAssay data set” (2004).
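Method: 48-hour compound exposure of cells in 96-well plates, five concentrations, linear interpolation of endpoints. The concentration for 50% growth inhibition is given as GI50.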 The source made the active and inactive calls. Rule as the data show it: active = GI50 up to about 1.1 µM and inactive = higher.

Experiments:
Assay in all cases: NCI anticancer screen, dose series, 48 h
786-0 = system: 786-0
A498 = system: A498
A549 = system: A549
ACHN = system: ACHN
BT-549 = system: BT-549
CAKI-1 = system: CAKI-1
CCRF-CEM = system: CCRF-CEM
COLO 205 = system: COLO 205
EKVX = system: EKVX
HCC 2998 = system: HCC 2998
HCT-116 = system: HCT-116
HCT-15 = system: HCT-15
HOP-62 = system: HOP-62
IGROV-1 = system: IGROV-1
KM12 = system: KM12
LOX IMVI = system: LOX IMVI
M14 = system: M14
MCF7 = system: MCF7
MDA-MB-231 = system: MDA-MB-231
MDA-MB-435 = system: MDA-MB-435
MDA-N = system: MDA-N
Malme-3M = system: Malme-3M
NCI-H226 = system: NCI-H226
NCI-H23 = system: NCI-H23
NCI-H460 = system: NCI-H460
NCI-H522 = system: NCI-H522
NCI/ADR-RES = system: NCI/ADR-RES
OVCAR-3 = system: OVCAR-3
OVCAR-4 = system: OVCAR-4
OVCAR-5 = system: OVCAR-5
OVCAR-8 = system: OVCAR-8
PC-3 = system: PC-3
RPMI-8226 = system: RPMI-8226
RXF 393 = system: RXF 393
SF-268 = system: SF-268
SF-295 = system: SF-295
SF-539 = system: SF-539
SK-MEL-28 = system: SK-MEL-28
SK-MEL-2 = system: SK-MEL-2
SK-MEL-5 = system: SK-MEL-5
SK-OV-3 = system: SK-OV-3
SN12C = system: SN12C
SNB-19 = system: SNB-19
SNB-75 = system: SNB-75
SW-620 = system: SW-620
T47D = system: T47D
TK-10 = system: TK-10
U-251 = system: U-251
UACC-257 = system: UACC-257
UO-31 = system: UO-31
DU-145 = system: DU-145
HL-60 = system: HL-60
HOP-92 = system: HOP-92
HT-29 = system: HT-29
K562 = system: K562
MOLT-4 = system: MOLT-4
UACC-62 = system: UACC-62
Hs-578T = system: Hs-578T
SR = system: SR

Measured: GI50

N#Cc1c(-c2ccccc2)c(/C=N/c2ccc(F)cc2)c(=O)n2c1[nH]c1ccccc12
inactive: 786-0 24.7 µM | A498 29.4 µM | A549 19.7 µM | ACHN 18.5 µM | BT-549 35.5 µM | CAKI-1 13.6 µM | CCRF-CEM 15.6 µM | COLO 205 29.8 µM | EKVX 19.8 µM | HCC 2998 21.2 µM | HCT-116 14.7 µM | HOP-62 2.95 µM | IGROV-1 25.4 µM | KM12 29.6 µM | LOX IMVI 23.8 µM | M14 14.4 µM | MCF7 36.6 µM | MDA-MB-231 51.6 µM | MDA-MB-435 18.4 µM | MDA-N 10.4 µM | Malme-3M 23.6 µM | NCI-H226 27.6 µM | NCI-H23 37 µM | NCI-H460 17.8 µM | NCI-H522 16 µM | NCI/ADR-RES 21 µM | OVCAR-3 19.7 µM | OVCAR-4 40.6 µM | OVCAR-5 26.7 µM | OVCAR-8 34.2 µM | PC-3 28.6 µM | RPMI-8226 3.06 µM | RXF 393 22.5 µM | SF-268 29.4 µM | SF-295 18.5 µM | SF-539 30.2 µM | SK-MEL-28 37.1 µM | SK-MEL-2 26.9 µM | SK-MEL-5 25.6 µM | SK-OV-3 36.3 µM | SN12C 22.4 µM | SNB-19 28.3 µM | SNB-75 39 µM | SW-620 29.5 µM | T47D 27.7 µM | TK-10 20.8 µM | U-251 46.7 µM | UACC-257 28.5 µM | UO-31 16.2 µM
19.7 µM: HCT-15

Cc1cc(-c2ccc(C(=O)C(Cl)(Cl)Cl)[nH]2)on1
inactive: 786-0 37 µM | A498 41.3 µM | A549 33.5 µM | ACHN 27.9 µM | BT-549 33.3 µM | CAKI-1 18.1 µM | CCRF-CEM 27.2 µM | COLO 205 86.7 µM | DU-145 16.1 µM | EKVX 35.1 µM | HCT-116 18 µM | HL-60 21.1 µM | HOP-62 11.4 µM | HOP-92 51.5 µM | HT-29 28.4 µM | K562 18.3 µM | KM12 12.2 µM | LOX IMVI 24.9 µM | M14 35.5 µM | MDA-MB-231 18 µM | MDA-MB-435 20.5 µM | MDA-N 34.2 µM | MOLT-4 2.95 µM | Malme-3M 73.1 µM | NCI-H226 22.4 µM | NCI-H23 23.8 µM | NCI-H460 10.2 µM | NCI-H522 21.2 µM | NCI/ADR-RES 29.3 µM | OVCAR-3 25.1 µM | OVCAR-4 35.5 µM | OVCAR-5 22.6 µM | OVCAR-8 32.7 µM | PC-3 29.9 µM | RPMI-8226 8.51 µM | RXF 393 17.1 µM | SF-268 36.9 µM | SF-295 33.3 µM | SF-539 15.3 µM | SK-MEL-28 31.4 µM | SK-MEL-2 23.9 µM | SK-MEL-5 32.8 µM | SK-OV-3 60 µM | SN12C 16.4 µM | SNB-19 40.8 µM | SNB-75 31.3 µM | SW-620 50.6 µM | T47D 52.2 µM | TK-10 27.4 µM | U-251 15.4 µM | UACC-257 42.1 µM | UACC-62 28.2 µM | UO-31 22.3 µM
28 µM: HCT-15

CCC(NC(C)c1ccccc1)C(O)c1ccc(OCc2ccccc2)c(OCc2ccccc2)c1 (stereo not drawn)
inactive: 786-0 13.5 µM | A498 24 µM | A549 16 µM | ACHN 18 µM | CAKI-1 11.9 µM | CCRF-CEM 14.2 µM | COLO 205 2.23 µM | DU-145 18.2 µM | EKVX 16.5 µM | HCC 2998 2.37 µM | HCT-116 14.5 µM | HL-60 13.8 µM | HOP-62 17.9 µM | HOP-92 5.74 µM | HT-29 3.31 µM | Hs-578T 19 µM | IGROV-1 18.6 µM | K562 3.22 µM | KM12 5.81 µM | LOX IMVI 12.1 µM | M14 4.86 µM | MCF7 14.3 µM | MDA-MB-231 8.47 µM | MDA-MB-435 13.8 µM | MDA-N 15.3 µM | MOLT-4 14.8 µM | Malme-3M 14.6 µM | NCI-H226 18.6 µM | NCI-H23 16.4 µM | NCI-H460 15.1 µM | NCI-H522 15.7 µM | NCI/ADR-RES 15.8 µM | OVCAR-3 12 µM | OVCAR-4 16.4 µM | OVCAR-5 13.1 µM | OVCAR-8 14.1 µM | PC-3 13.9 µM | RPMI-8226 4.04 µM | RXF 393 8.65 µM | SF-268 19.4 µM | SF-295 20.4 µM | SF-539 16.8 µM | SK-MEL-28 19.9 µM | SK-MEL-2 14.9 µM | SK-MEL-5 4.45 µM | SK-OV-3 15.5 µM | SN12C 15.1 µM | SNB-19 14.5 µM | SNB-75 10.6 µM | SR 2.47 µM | SW-620 4.57 µM | T47D 15.1 µM | TK-10 17.8 µM | U-251 13 µM | UACC-257 4.04 µM | UACC-62 17.5 µM | UO-31 11 µM
14.5 µM: HCT-15

CC(C)[C@@H]1CC[C@@H](C)C[C@H]1OC(=O)/C=C1/C2C=CC(O2)C1C(=O)O[C@@H]1C[C@H](C)CC[C@H]1C(C)C (stereo partly drawn)
inactive: 786-0 > 100 µM | A498 > 100 µM | A549 > 100 µM | ACHN > 100 µM | CAKI-1 > 100 µM | CCRF-CEM 45.5 µM | COLO 205 > 100 µM | DU-145 > 100 µM | EKVX > 100 µM | HCC 2998 13.5 µM | HCT-116 > 100 µM | HL-60 30.5 µM | HOP-62 > 100 µM | HOP-92 > 100 µM | HT-29 48.5 µM | Hs-578T > 100 µM | IGROV-1 > 100 µM | K562 51.4 µM | KM12 > 100 µM | LOX IMVI > 100 µM | M14 > 100 µM | MCF7 97.5 µM | MDA-MB-231 > 100 µM | MDA-MB-435 > 100 µM | MDA-N > 100 µM | MOLT-4 43.8 µM | Malme-3M > 100 µM | NCI-H226 28.4 µM | NCI-H23 > 100 µM | NCI-H460 89.1 µM | NCI-H522 41.8 µM | NCI/ADR-RES > 100 µM | OVCAR-3 > 100 µM | OVCAR-4 > 100 µM | OVCAR-5 > 100 µM | OVCAR-8 > 100 µM | PC-3 56 µM | RPMI-8226 > 100 µM | RXF 393 > 100 µM | SF-268 > 100 µM | SF-295 65.3 µM | SF-539 > 100 µM | SK-MEL-28 > 100 µM | SK-MEL-5 > 100 µM | SK-OV-3 > 100 µM | SN12C > 100 µM | SNB-19 > 100 µM | SNB-75 > 100 µM | SR 41.7 µM | SW-620 > 100 µM | T47D 45.3 µM | TK-10 > 100 µM | U-251 > 100 µM | UACC-257 46.2 µM | UACC-62 > 100 µM | UO-31 > 100 µM
> 100 µM: HCT-15

COc1cc(C(=O)Nc2cc(C(N)=O)cc(OC)c2OC)cc(NC(=O)/C=C/c2ccccc2)c1OC
> 100 µM: HCT-15
inactive: A549 > 100 µM | ACHN > 100 µM | BT-549 > 100 µM | CCRF-CEM 55.5 µM | COLO 205 > 100 µM | DU-145 > 100 µM | EKVX > 100 µM | HL-60 96.4 µM | HOP-92 5.11 µM | HT-29 > 100 µM | IGROV-1 > 100 µM | K562 > 100 µM | KM12 > 100 µM | MCF7 > 100 µM | MDA-MB-231 20 µM | MDA-MB-435 > 100 µM | MDA-N > 100 µM | MOLT-4 52.4 µM | Malme-3M 2.63 µM | NCI-H23 > 100 µM | NCI-H460 66.4 µM | NCI-H522 3.43 µM | NCI/ADR-RES > 100 µM | OVCAR-3 3.68 µM | OVCAR-4 > 100 µM | OVCAR-5 > 100 µM | OVCAR-8 > 100 µM | PC-3 > 100 µM | RPMI-8226 44 µM | RXF 393 > 100 µM | SF-295 2.67 µM | SF-539 > 100 µM | SK-MEL-28 > 100 µM | SK-OV-3 > 100 µM | SN12C 18.6 µM | SNB-19 > 100 µM | SNB-75 1.71 µM | SR 20.4 µM | SW-620 > 100 µM | TK-10 > 100 µM | UACC-257 > 100 µM | UACC-62 15.2 µM | UO-31 > 100 µM
